Results on three compounds are retold here after ChEMBL document CHEMBL3108727, “Lupane triterpenoids from the stems of Euonymus carnosus” (J Nat Prod, 2014).

One series relates to A549. Kind of series: Cytotoxicity against human A549 cells after 96 hrs by MTT assay. Particulars: A549, 96 h. The class given is functional, cell-based. A general note: Tetrazolium assays rely on reduction of a dye to a coloured formazan, in cell work by metabolically active cells.
A further series has as its system A2780. Put plainly: Cytotoxicity against human A2780 cells after 96 hrs by MTT assay. The class given is functional, cell-based. Particulars: A2780, 96 h.
The nature of series [1]: Cytotoxicity against human HCT8 cells after 96 hrs by MTT assay. In kind it is functional, cell-based. The following applies: HCT-8, 96 h.
Series [2] in a line: Cytotoxicity against human BGC823 cells after 96 hrs by MTT assay. The following applies: BGC-823, 96 h. The class given is functional, cell-based.
Series [3] is described as follows: Cytotoxicity against human Bel7402 cells after 96 hrs by MTT assay. The class given is functional, cell-based. Particulars: Bel-7402, 96 h.
Series [4] is described as follows: Cytotoxicity against mouse BV2 cells assessed as cell viability by MTT assay relative to LPS-treated control. The class given is cell-based, BV-2. Also noted: concentration or dose not given beside the values. Particulars: read-out: Activity.
Series [5] is described as follows: Antiinflammatory activity in mouse BV2 cells assessed as inhibition of LPS-induced nitric oxide production after 24 hrs by Griess method. In kind it is functional, cell-based. The following applies: BV-2, 24 h. A general note: Griess reagent forms a coloured azo dye with nitrite.

SMILES strings stand for the structures.

As usually defined, the IC50 is the concentration that gives 50% inhibition. `C[C@@H](C(=O)O)[C@@H]1CC[C@]2(C)CC[C@]3(C)[C@H](CC[C@@H]4[C@@]5(C)CC[C@@H](O)C(C)(C)[C@@H]5CC[C@]43C)[C@@H]12`: the IC50 is more than 10 µM in the series on A549; more than 10 µM with A2780; more than 10 µM in series [1]; more than 10 µM in series [2]; more than 10 µM in series [3]; 7.8 µM in series [5]. Moreover, the viability in series [4] amounted to 96.8%.

Regarding `C[C@H](C(=O)O)[C@@H]1CC[C@]2(C)CC[C@]3(C)[C@H](CC[C@@H]4[C@@]5(C)CC[C@@H](O)C(C)(C)[C@@H]5CC[C@]43C)[C@@H]12`, the 50% inhibitory concentration (IC50) in the series on A549 was more than 10 µM; with A2780, more than 10 µM; in series [1], more than 10 µM; in series [2], more than 10 µM; in series [3] it was more than 10 µM; in series [5], 7.39 µM. In series [4], the viability turned out to be 87.3%.

With `CC(=O)[C@@H]1CC[C@]2(C)CC[C@]3(C)[C@H](CC[C@@H]4[C@@]5(C)CC[C@H](O)C(C)(C)[C@@H]5CC[C@]43C)[C@@H]12`, the IC50 with A549 was more than 10 µM; in the series with A2780 it was more than 10 µM; in series [1], more than 10 µM; in series [2], more than 10 µM; in series [3], more than 10 µM; in series [5] it was 6.09 µM. Besides, the viability in series [4] is 93.5%.
